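These data come from cells grown in 96-well plates and exposed to compound for 48 hours at five concentrations. GI50 = concentration required for 50% inhibition of growth.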 The source made the active and inactive calls. No stated cut-off is given here; in the data, active = GI50 up to about 1.1 µM and inactive = higher.
Columns and labels:
Experiment in all cases: NCI tumour cell line growth inhibition, 48 h
786-0 = system: 786-0
CCRF-CEM = system: CCRF-CEM
HCT-116 = system: HCT-116
HOP-62 = system: HOP-62
HOP-92 = system: HOP-92
HT-29 = system: HT-29
IGROV-1 = system: IGROV-1
M14 = system: M14
Malme-3M = system: Malme-3M
NCI-H226 = system: NCI-H226
NCI-H522 = system: NCI-H522
OVCAR-8 = system: OVCAR-8
PC-3 = system: PC-3
RPMI-8226 = system: RPMI-8226
SF-268 = system: SF-268
SF-295 = system: SF-295
SK-MEL-2 = system: SK-MEL-2
SK-OV-3 = system: SK-OV-3
SW-620 = system: SW-620
UACC-62 = system: UACC-62

| SMILES | GI50 (786-0) | GI50 (CCRF-CEM) | GI50 (HCT-116) | GI50 (HOP-62) | GI50 (HOP-92) | GI50 (HT-29) | GI50 (IGROV-1) | GI50 (M14) | GI50 (Malme-3M) | GI50 (NCI-H226) | GI50 (NCI-H522) | GI50 (OVCAR-8) | GI50 (PC-3) | GI50 (RPMI-8226) | GI50 (SF-268) | GI50 (SF-295) | GI50 (SK-MEL-2) | GI50 (SK-OV-3) | GI50 (SW-620) | GI50 (UACC-62) |
| --- | --- | --- | --- | --- | --- | --- | --- | --- | --- | --- | --- | --- | --- | --- | --- | --- | --- | --- | --- | --- |
| O/N=N/c1ccc(-c2ccccc2)cn1 | 6.38 µM (inactive) | 2.2 µM (inactive) | 9.08 µM (inactive) | 3.45 µM (inactive) | 1.32 µM (inactive) | 20.6 µM (inactive) | 27.7 µM (inactive) | 9.08 µM (inactive) | 11.5 µM (inactive) | 17.9 µM (inactive) | 18.8 µM (inactive) | 15 µM (inactive) | 7.4 µM (inactive) | < 0.01 µM (active) | 4.59 µM (inactive) | 8.13 µM (inactive) | 31.6 µM (inactive) | 20.3 µM (inactive) | 10.7 µM (inactive) | 7.64 µM (inactive) |
| CCCCCCCCCCCCCCCCCCN(C)C(COC)COP(=O)([O-])OCC[N+](C)(C)C (stereo not drawn) | 1.74 µM (inactive) | 2.18 µM (inactive) | 4.68 µM (inactive) | 3.09 µM (inactive) | 1.89 µM (inactive) | 2.94 µM (inactive) | 1.3 µM (inactive) | 3.46 µM (inactive) | 14.9 µM (inactive) | 3.58 µM (inactive) | 2.69 µM (inactive) | 11.8 µM (inactive) | 1.53 µM (inactive) | 1.83 µM (inactive) | 3.24 µM (inactive) | 2.56 µM (inactive) | 18.7 µM (inactive) | 11.2 µM (inactive) | 6.47 µM (inactive) | 5.16 µM (inactive) |
| CC(C)=CC1CC(C)C2(CCC3(C)CC4C(C(=O)CC4(C)O)/C(C=O)=C\CC32)O1 (stereo not drawn) | 0.021 µM (active) | 0.0179 µM (active) | 0.0407 µM (active) | 0.126 µM (active) | 0.0703 µM (active) | 0.0312 µM (active) | 0.144 µM (active) | 0.134 µM (active) | 0.131 µM (active) | 0.0689 µM (active) | 0.028 µM (active) | 0.0432 µM (active) | 0.038 µM (active) | 0.0255 µM (active) | 0.136 µM (active) | 0.191 µM (active) | 0.144 µM (active) | 0.148 µM (active) | 0.0205 µM (active) | 0.169 µM (active) |
| CC(/C=C/C=C\C=C\C=C(/C)C(=O)NC(C)CO)=C\C(C)C(O)/C(C)=C/C(C)CCc1ccccc1 (stereo not drawn) | 13.4 µM (inactive) | 8.85 µM (inactive) | 0.127 µM (active) | 12.4 µM (inactive) | 5.41 µM (inactive) | 11.6 µM (inactive) | 11.1 µM (inactive) | 8 µM (inactive) | 6.64 µM (inactive) | 8.65 µM (inactive) | 2.77 µM (inactive) | 6.82 µM (inactive) | 7.94 µM (inactive) | 4.14 µM (inactive) | 13.5 µM (inactive) | 0.0236 µM (active) | 13.2 µM (inactive) | 16.4 µM (inactive) | 13.6 µM (inactive) | 8.61 µM (inactive) |
| CCOC(=O)CCC1(C(=O)O[C@@H]2C[C@H](C)CC[C@H]2C(C)C)CCCCC1=O (stereo partly drawn) | > 100 µM (inactive) | 46.1 µM (inactive) | 41.7 µM (inactive) | > 100 µM (inactive) | 52.4 µM (inactive) | 43.3 µM (inactive) | > 100 µM (inactive) | 56.5 µM (inactive) | > 100 µM (inactive) | > 100 µM (inactive) | 67.6 µM (inactive) | > 100 µM (inactive) | 39.3 µM (inactive) | 28.7 µM (inactive) | > 100 µM (inactive) | 65.8 µM (inactive) | > 100 µM (inactive) | > 100 µM (inactive) | > 100 µM (inactive) | 94.6 µM (inactive) |
| CN(C)CCCNC(=O)CNC(=O)c1cc(NC(=O)c2cc(NC(=O)c3cc(NC(=O)CCNC(=O)c4cc(NC(=O)c5cc(NC(=O)c6nccn6C)cn5C)cn4C)cn3C)cn2C)cn1C | > 100 µM (inactive) | 24.5 µM (inactive) | > 100 µM (inactive) | > 100 µM (inactive) | > 100 µM (inactive) | > 100 µM (inactive) | > 100 µM (inactive) | > 100 µM (inactive) | > 100 µM (inactive) | > 100 µM (inactive) | > 100 µM (inactive) | > 100 µM (inactive) | > 100 µM (inactive) | > 100 µM (inactive) | > 100 µM (inactive) | > 100 µM (inactive) | > 100 µM (inactive) | > 100 µM (inactive) | > 100 µM (inactive) | – |
| Cn1cc2c3ccccc3nc-2c2ccccc21 [ISOCRYPTOLEPINE] | 2.1 µM (inactive) | 1.45 µM (inactive) | 1 µM (active) | 1.59 µM (inactive) | 1.91 µM (inactive) | 1.29 µM (inactive) | 1.63 µM (inactive) | 1.63 µM (inactive) | 2.28 µM (inactive) | – | 1.41 µM (inactive) | 1.6 µM (inactive) | 2.52 µM (inactive) | 1.53 µM (inactive) | 2.33 µM (inactive) | 2.78 µM (inactive) | 1.91 µM (inactive) | 1.99 µM (inactive) | 1.12 µM (inactive) | 1.6 µM (inactive) |
